Measured values: patent US20110230476A1, “PI3 KINASE INHIBITORS AND USES THEREOF” (AVILA THERAPEUTICS, INC., priority 2009, published 2011)
pEC50, pIC50: −log10 of the molar value.

How the values were obtained:
PI3Kα (p110α/p85α) = molecular target: T1, PI3Kα (p110α/p85α) (Homo sapiens, UniProt P42336); test: HTRF assay, potency against active PI3Kα; type: biochemical; details: HTRF; [ATP]=50 μM, [di-C8-PIP2]=10 μM; 30 min pre-incubation; read-out: PI3Kα Inhibition
T1 construct: purchased BPS Bioscience (San Diego, Calif.) or Millipore (Billerica, Mass.)
Method in brief: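 Active p110/p85α lipid kinase reactions were started with ATP and run 30-60 minutes at 25 °C, then stopped and developed with HTRF detection mix. HTRF ratio converted to % inhibition against ±enzyme controls; IC50 from log[inhibitor] vs response, variable slope.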

PI3Kγ (p120γ) = molecular target: T2, PI3Kγ (p120γ) (Homo sapiens, UniProt P48736); test: HTRF assay, potency against active PI3Kγ; type: biochemical; details: [ATP]=50 μM, [di-C8-PIP2]=10 μM, 30 min pre-incubation, read-out: PI3Kγ Inhibition
T2 construct: purchased BPS Bioscience (San Diego, Calif.) or Millipore (Billerica, Mass.)
Text: Homogeneous Time Resolved Fluorescence (HTRF) Assay Protocol for Potency Assessment Against the Active Forms of PI3Kα, PI3Kβ, and PI3Kγ
The protocol below describes an end-point, competition-binding HTRF assay used to measure inherent potency of test compounds against active PI3Kα (p110α/p85α), PI3Kβ (p110β/p85α), and PI3Kγ (p120γ) enzymes. The mechanics of the assay platform are best described by the vendor (Millipore, Billerica, Mass.) on their website at the following URL: www.millipore.com/coa/tech1/74jt4z.
Briefly, Stop solution (Stop A, #33-007 and Stop B, #33-009; 3:1 ratio) and Detection Mix (from DMC, #33-015 with DMA, #33-011 and DMB, #33-013; 18:1:1 ratio) were prepared as recommended by the manufacturer about 2 hrs prior to use. Additionally, 1× reaction buffer (from 4× buffer stock# 33-003), 1.4× stocks of PI3Kα, PI3Kβ, and PI3Kγ enzymes from BPS Bioscience (San Diego, Calif.) or Millipore (Billerica, Mass.) with di-C8-PIP2 lipid substrate (#33-005), and a 4×ATP solution (#A7699 Sigma/Aldrich; St. Louis, Mo.) were prepared in 1× reaction buffer. 15 μL of PI3K enzymes and lipid substrate mix were pre-incubated in a Corning (#3573) 384-well, black, non-treated microtiter plate (Corning, N.Y.) for 30 min at 25° C. with a 0.5 μL volume of 50% DMSO and serially diluted compounds prepared in 50% DMSO. Lipid kinase reactions were started with the addition of 5 μL of ATP solution, mixed for 15 sec on a rotary plate shaker and incubated for 30-60 minutes at 25° C. Next, reactions were stopped with a 5 μL addition of Stop solution immediately followed by a 5 μL volume of Detection Mix. Stopped reactions were equilibrated for 1 and 18 hrs at room temperature and read in a Synergy^4 plate reader from BioTek (Winooski, Vt.) at λex330-80/λem620-35 and λem665-7.5. At the conclusion of each assay, the HTRF ratio from fluorescence emission values for each well was calculated and % Inhibition determined from averaged controls wells (+/−PI3K enzyme). % Inhibition values for each compound were then plotted against inhibitor concentration to estimate IC50 from log [Inhibitor] vs Response, Variable Slope model in GraphPad Prism from GraphPad Software (San Diego, Calif.).
[Reagent] used in optimized protocol: • [p110α/p85α]=0.5-1.5 nM, [ATP]=50 μM, [di-C8—PIP2]=10 μM • [p110β/p85α]=0.75 nM, [ATP]=50 μM, [di-C8—PIP2]=10 μM • [p120γ]=2-2.5 nM, [ATP]=50 μM, [di-C8—PIP2]=10 μM • (ATP KMapp for both enzymes was estimated to be 40-70 μM)

Phospho-Akt(Ser473) = test: Dose response in SKOV3 cells as determined by in-cell Western; type: cell-based; details: Homo sapiens, SK-OV-3; SKOV3 cells, 1 hr; read-out: pAKT Inhibition in cell Western
Protocol: Dose Response in SKOV3 Cells as Determined by in-Cell Western
Twenty four hours later the media was removed and replaced with 100 ul media containing test compound or control compound and cells were returned to the incubator for 1 hr. At the end of the hour, the media was removed and the cells were washed once with PBS, then fixed for 20 minutes at room temperature in 4% formaldehyde in PBS. The formaldehyde was removed and cells were washed 5 times for 5 minutes with 100 ul of Permeabilization Buffer (PBS+0.1% Triton X-100) at room temperature with gentle shaking. The last wash was removed and replaced with 150 ul of Odyssey Blocking Buffer (Li-Cor, Lincoln, Nebr.) and incubated for 90 minutes at room temperature with gentle shaking.
The Blocking Buffer was then replaced with 50 ul of primary antibody mix (rabbit anti-Phospho-Akt(Ser473) at 1:100 (Cell Signaling Technology, Boston, Mass.) and mouse anti-tubulin at 1:5000 (Sigma Aldrich, St. Louis, Mo.) diluted in Odyssey Blocking Buffer) and incubated overnight at room temperature with gentle shaking.
The next morning, the antibody mix was removed and the wells were washed 5 times for 5 minutes with PBS+0.1% Tween-20. The last wash was replaced with 50 ul of secondary antibody mix (goat anti-rabbit-IRDye-680 and goat anti-mouse-IRDye-800 (Li-Cor), both diluted 1:1000 in Odyssey Blocking Buffer+0.2% Tween-20) and incubated for 1 hour at room temperature with gentle shaking. The antibody mix was removed and the wells were washed 5 times for 5 minutes in PBS+0.1% Tween-20, then 1 time with ddH2O.
The plates were scanned on an Odyssey machine (Li-Cor) with a 3 mm focus offset at an intensity of 8 in both channels and the data was analyzed using the Odyssey software.

T2 sequence (P48736 whole entry): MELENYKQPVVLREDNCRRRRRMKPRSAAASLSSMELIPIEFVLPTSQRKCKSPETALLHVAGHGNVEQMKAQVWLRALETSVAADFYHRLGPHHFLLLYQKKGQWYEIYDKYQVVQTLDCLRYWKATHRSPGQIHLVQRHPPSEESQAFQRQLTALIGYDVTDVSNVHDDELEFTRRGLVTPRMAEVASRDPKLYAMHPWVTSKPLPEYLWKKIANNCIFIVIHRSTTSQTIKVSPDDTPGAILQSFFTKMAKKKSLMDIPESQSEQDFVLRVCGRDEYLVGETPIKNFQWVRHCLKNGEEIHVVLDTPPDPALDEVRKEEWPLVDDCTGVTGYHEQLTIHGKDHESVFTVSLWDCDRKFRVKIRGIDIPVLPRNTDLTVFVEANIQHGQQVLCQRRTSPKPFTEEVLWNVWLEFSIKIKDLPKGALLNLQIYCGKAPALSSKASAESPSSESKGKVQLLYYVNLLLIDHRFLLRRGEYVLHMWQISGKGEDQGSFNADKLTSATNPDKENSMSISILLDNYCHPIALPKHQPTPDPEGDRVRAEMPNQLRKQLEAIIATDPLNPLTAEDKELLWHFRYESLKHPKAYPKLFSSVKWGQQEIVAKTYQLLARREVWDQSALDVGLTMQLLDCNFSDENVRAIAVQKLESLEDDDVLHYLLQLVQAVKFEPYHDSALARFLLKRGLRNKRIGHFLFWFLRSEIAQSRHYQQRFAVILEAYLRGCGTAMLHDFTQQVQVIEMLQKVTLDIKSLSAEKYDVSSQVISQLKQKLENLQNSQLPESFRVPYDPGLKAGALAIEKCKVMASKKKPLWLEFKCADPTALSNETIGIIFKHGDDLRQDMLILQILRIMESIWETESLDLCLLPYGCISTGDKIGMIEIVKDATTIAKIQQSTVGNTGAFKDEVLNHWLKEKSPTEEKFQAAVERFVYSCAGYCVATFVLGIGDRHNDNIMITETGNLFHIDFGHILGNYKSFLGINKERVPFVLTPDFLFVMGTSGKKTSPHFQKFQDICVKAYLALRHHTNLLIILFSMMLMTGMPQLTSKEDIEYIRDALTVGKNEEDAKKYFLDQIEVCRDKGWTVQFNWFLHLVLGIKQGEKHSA
T1 sequence (P42336 whole entry): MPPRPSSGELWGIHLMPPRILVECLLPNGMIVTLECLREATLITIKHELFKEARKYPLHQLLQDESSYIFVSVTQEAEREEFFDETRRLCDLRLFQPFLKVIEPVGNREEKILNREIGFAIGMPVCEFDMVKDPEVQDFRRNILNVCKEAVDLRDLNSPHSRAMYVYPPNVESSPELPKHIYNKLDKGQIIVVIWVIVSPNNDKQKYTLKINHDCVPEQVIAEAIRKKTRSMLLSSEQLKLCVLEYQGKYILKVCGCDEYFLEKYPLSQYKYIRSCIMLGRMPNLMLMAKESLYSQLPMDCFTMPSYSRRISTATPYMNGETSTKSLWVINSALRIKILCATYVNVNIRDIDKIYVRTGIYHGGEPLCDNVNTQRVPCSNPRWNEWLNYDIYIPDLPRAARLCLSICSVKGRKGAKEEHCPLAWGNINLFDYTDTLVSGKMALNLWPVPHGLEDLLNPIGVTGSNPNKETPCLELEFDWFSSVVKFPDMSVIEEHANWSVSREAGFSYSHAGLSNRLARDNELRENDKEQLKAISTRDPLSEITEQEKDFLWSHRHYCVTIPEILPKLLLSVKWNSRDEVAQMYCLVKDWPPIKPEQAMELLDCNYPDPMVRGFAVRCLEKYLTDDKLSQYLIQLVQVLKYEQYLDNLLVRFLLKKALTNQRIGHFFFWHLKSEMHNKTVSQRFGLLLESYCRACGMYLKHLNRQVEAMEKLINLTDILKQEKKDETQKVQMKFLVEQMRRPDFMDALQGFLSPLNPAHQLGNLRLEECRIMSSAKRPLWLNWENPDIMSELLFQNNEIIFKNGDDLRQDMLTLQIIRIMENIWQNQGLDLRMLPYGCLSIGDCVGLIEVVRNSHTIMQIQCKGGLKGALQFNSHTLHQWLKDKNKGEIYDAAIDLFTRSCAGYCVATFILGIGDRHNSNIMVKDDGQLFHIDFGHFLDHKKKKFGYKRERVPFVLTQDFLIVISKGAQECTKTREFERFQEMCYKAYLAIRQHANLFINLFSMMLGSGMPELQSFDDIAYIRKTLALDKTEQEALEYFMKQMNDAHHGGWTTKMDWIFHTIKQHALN
T1 sequence (P27986 whole entry partner): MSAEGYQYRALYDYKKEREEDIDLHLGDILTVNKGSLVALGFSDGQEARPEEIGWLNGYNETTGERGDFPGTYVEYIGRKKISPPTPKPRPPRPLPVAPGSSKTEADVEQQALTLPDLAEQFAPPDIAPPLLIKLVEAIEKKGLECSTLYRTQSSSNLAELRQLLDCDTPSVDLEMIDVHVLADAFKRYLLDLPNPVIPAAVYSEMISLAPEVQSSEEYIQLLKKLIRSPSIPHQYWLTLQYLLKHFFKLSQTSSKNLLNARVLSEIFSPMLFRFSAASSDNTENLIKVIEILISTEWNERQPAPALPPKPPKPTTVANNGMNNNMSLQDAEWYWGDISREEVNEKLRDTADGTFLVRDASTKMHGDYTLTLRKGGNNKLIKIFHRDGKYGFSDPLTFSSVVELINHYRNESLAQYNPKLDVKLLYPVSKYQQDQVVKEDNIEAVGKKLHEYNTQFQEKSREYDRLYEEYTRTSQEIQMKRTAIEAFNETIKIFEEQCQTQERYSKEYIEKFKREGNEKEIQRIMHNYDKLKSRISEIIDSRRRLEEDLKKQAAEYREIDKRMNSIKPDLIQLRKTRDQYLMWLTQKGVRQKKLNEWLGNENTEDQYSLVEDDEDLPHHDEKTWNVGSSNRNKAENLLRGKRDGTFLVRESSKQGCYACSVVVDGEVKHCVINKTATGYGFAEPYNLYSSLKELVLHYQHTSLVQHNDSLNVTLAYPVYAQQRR

SMILES | pIC50 (PI3Kα (p110α/p85α)) | pIC50 (PI3Kγ (p120γ)) | pEC50 (Phospho-Akt(Ser473))
C=CS(=O)(=O)N1CCN(Cc2cc3nc(-c4cccc5[nH]ncc45)nc(N4CCOCC4)c3s2)CC1 [II-a-1] | 6.00 to 7.00 | 6.00 to 7.00 | –
C=CC(=O)NCCS(=O)(=O)N1CCN(Cc2cc3nc(-c4cccc5[nH]ncc45)nc(N4CCOCC4)c3s2)CC1 [II-a-13, N-(2-(4-((2-(1H-indazol-4-yl)-4-morpholinothieno[3,2-d]pyrimidin-6-yl)methyl)piperazin-1-ylsulfonyl)ethyl)acrylamide] | 7.00 to 8.00 | < 6.00 | –
C=CC(=O)N1CCN(Cc2cc3nc(-c4ccccc4)nc(N4CCOCC4)c3s2)CC1 [II-a-17, 1-(4-((4-morpholino-2-phenylthieno[3,2-d]pyrimidin-6-yl)methyl)piperazin-1-yl)prop-2-en-1-one] | < 6.00 | < 6.00 | –
C=CC(=O)NCc1ccc(C(=O)N2CCN(Cc3cc4nc(-c5cccc6[nH]ncc56)nc(N5CCOCC5)c4s3)CC2)cc1 [II-a-21, N-(4-(4-((2-(1H-indazol-4-yl)-4-morpholinothieno[3,2-d]pyrimidin-6-yl)methyl)piperazine-1-carbonyl)benzyl)acrylamide] | < 6.00 | < 6.00 | –
C=CC(=O)Nc1ccc(CCNC(=O)c2cc3nc(-c4cnc(N)nc4)cc(N4CCOCC4)c3s2)cc1 [II-g-1, N-(4-acrylamidophenethyl)-5-(2-aminopyrimidin-5-yl)-7-morpholinothieno[3,2-b]pyridine-2-carboxamide] | 6.00 to 7.00 | – | 7.00 to 8.00
CCCC(=O)CCC(=O)N1CCN(Cc2cc3nc(-c4cccc5[nH]ncc45)nc(N4CCOCC4)c3s2)CC1 [II^R-a-36, 1-(4-((2-(1H-indazol-4-yl)-4-morpholinothieno[3,2-d]pyrimidin-6-yl)methyl)piperazin-1-yl)heptane-1,4-dione] | < 6.00 | – | 6.00 to 7.00
C=C(CC)C(=O)CCC(=O)N1CCN(c2ccc(-c3ccnc4ccc(/C=C5\SC(=O)NC5=O)cc34)cn2)CC1 [V-20, (Z)-5-((4-(6-(4-(5-methylene-4-oxoheptanoyl)piperazin-1-yl)pyridin-3-yl)quinolin-6-yl)methylene)thiazolidine-2,4-dione] | > 8.00 | – | 7.00 to 8.00
C/C=C/C(=O)CCC(=O)N1CCC(n2ncc3c(N4CCOCC4)nc(-c4ccc(NC(=O)NC)cc4)nc32)CC1 [VII-7, (E)-1-methyl-3-(4-(4-morpholino-1-(1-(4-oxohept-5-enoyl)piperidin-4-yl)-1H-pyrazolo[3,4-d]pyrimidin-6-yl)phenyl)urea] | 6.00 to 7.00 | – | 6.00 to 7.00
C=CC(=O)Nc1ccc(C(=O)N2CCC(n3ncc4c(N5CCOCC5)nc(-c5cnc(N)nc5)nc43)CC2)cc1 [VII-12, N-(4-(4-(6-(2-aminopyrimidin-5-yl)-4-morpholino-1H-pyrazolo[3,4-d]pyrimidin-1-yl)piperidine-1-carbonyl)phenyl)acrylamide] | 6.00 to 7.00 | – | 7.00 to 8.00
C/C=C/C(=O)CCCC(=O)Nc1ccc(S(=O)(=O)Nc2cc(-c3ccc4nccc(-c5ccncc5)c4c3)cnc2OC)cc1 [X-1, (E)-N-(4-(N-(2-methoxy-5-(4-(pyridin-4-yl)quinolin-6-yl)pyridin-3-yl)sulfamoyl)phenyl)-5-oxooct-6-enamide] | 6.00 to 7.00 | – | ≥ 8.00
COc1ccc(-c2nn(C3CCN(C(=O)CCC(=O)/C=C/c4ccccc4)CC3)c3ncnc(N)c23)cc1OC [XI-3, (E)-1-(4-(4-amino-3-(3,4-dimethoxyphenyl)-1H-pyrazolo[3,4-d]pyrimidin-1-yl)piperidin-1-yl)-6-phenylhex-5-ene-1,4-dione] | 6.00 to 7.00 | – | ≤ 6.00
C=CC(=O)Nc1ccc(C#Cc2cc(-c3cnc(N)nc3)nc(N3CCOCC3)c2)cc1 [XII-4, N-(4-((2-(2-aminopyrimidin-5-yl)-6-morpholinopyridin-4-yl)ethynyl)phenyl)acrylamide] | 7.00 to 8.00 | – | 7.00 to 8.00
C=CC(=O)Nc1ccc(OCc2cc(-c3cnc(N)nc3)nc(N3CCOCC3)c2)cc1 [XII-5, N-(4-((2-(2-aminopyrimidin-5-yl)-6-morpholinopyridin-4-yl)methoxy)phenyl)acrylamide] | 6.00 to 7.00 | – | 7.00 to 8.00
CC(C)=CC(=O)CCC(=O)N1CCC2(CC1)CN(c1cc(-c3cnc(N)nc3)nc(N3CCOCC3)c1)C2 [XII-39, 1-(2-(2-(2-aminopyrimidin-5-yl)-6-morpholinopyridin-4-yl)-2,7-diazaspiro[3.5]nonan-7-yl)-6-methylhept-5-ene-1,4-dione] | 7.00 to 8.00 | – | 6.00 to 7.00
CC(C)=CC(=O)CCCC(=O)N1CCC2(CC1)CN(c1cc(-c3cnc(N)nc3)nc(N3CCOCC3)c1)C2 [XII-41, 1-(2-(2-(2-aminopyrimidin-5-yl)-6-morpholinopyridin-4-yl)-2,7-diazaspiro[3.5]nonan-7-yl)-7-methyloct-6-ene-1,5-dione] | < 6.00 | – | 6.00 to 7.00
C=CC(=O)Nc1ccc(C(=O)N2CC=C(c3cc(-c4cnc(N)nc4)nc(N4CCOCC4)c3)CC2)cc1 [XII-46, N-(4-(4-(2-(2-aminopyrimidin-5-yl)-6-morpholinopyridin-4-yl)-1,2,3,6-tetrahydropyridine-1-carbonyl)phenyl)acrylamide] | 6.00 to 7.00 | – | 6.00 to 7.00
C=CC(=O)Nc1cccc(C(=O)N2CC=C(c3cc(-c4cnc(N)nc4)nc(N4CCOCC4)c3)CC2)c1 [XII-47, N-(3-(4-(2-(2-aminopyrimidin-5-yl)-6-morpholinopyridin-4-yl)-1,2,3,6-tetrahydropyridine-1-carbonyl)phenyl)acrylamide] | 6.00 to 7.00 | – | 6.00 to 7.00
C=CC(=O)Nc1cccc(N2CC=C(c3cc(-c4cnc(N)nc4)nc(N4CCOCC4)c3)CC2)c1 [XII-48] | 6.00 to 7.00 | – | 6.00 to 7.00
C=C(C)C(=O)c1ccc(C(=O)N2CC=C(c3cc(-c4cnc(N)nc4)nc(N4CCOCC4)c3)CC2)cc1 [XII-49, 1-(4-(4-(2-(2-aminopyrimidin-5-yl)-6-morpholinopyridin-4-yl)-1,2,3,6-tetrahydropyridine-1-carbonyl)phenyl)-2-methylprop-2-en-1-one] | 7.00 to 8.00 | – | 6.00 to 7.00
CC(C)=CC(=O)c1ccc(C(=O)N2CC=C(c3cc(-c4cnc(N)nc4)nc(N4CCOCC4)c3)CC2)cc1 [XII-50, 1-(4-(4-(2-(2-aminopyrimidin-5-yl)-6-morpholinopyridin-4-yl)-1,2,3,6-tetrahydropyridine-1-carbonyl)phenyl)-3-methylbut-2-en-1-one] | 6.00 to 7.00 | – | 6.00 to 7.00
